The results in this text go back to patent US12303551B2, “Cellular immunotherapy compositions and uses thereof” (CERO THERPEUTICS HOLDINGS, INC., priority 2018, dated 2025).

The test system of the experiment is HCC827 NSCLC cells. The experiment in a line: FACS phagocytosis assay of TAMRA-SE labeled HCC827 cells with or without bafilomycin. It counts as cell-based. Conditions: 20 nM added to co-culture. The source says: FIGS. 73A-73B show ablation of CER-induced phagocytosis by bafilomycin, an inhibitor of phagolysosome V-ATPase. CER104-modified CD4+ T cells and mock transduced CD4+ T cells (control) were co-cultured with HCC827 cells that were labeled with TAMRA-SE fluorescent dye and treated with osimertinib. Phagocytosis was quantified by FACs.
T cells were transduced with lentiviral vector comprising hCER104 nucleic acid as described in Example 6. hCER104 modified T cells were co-cultured with HCC827 adenocarcinoma cells with or without osimertinib. […] FACs plots from in vitro phagocytosis assays in hCER104 modified T cells or mock transduced control T cells are shown in FIG. 73B.

In the case of `CO/C1=C\C(C)=C\[C@@H](C)[C@@H](O)[C@@H](C)C/C(C)=C/C=C/[C@H](OC)[C@@H]([C@@H](C)[C@@H](O)[C@H](C)[C@@]2(O)C[C@@H](O)[C@H](C)[C@@H](C(C)C)O2)OC1=O` [bafilomycin, reference compound], the “effect on uptake of labeled HCC827 cells by hCER104 modified T cells” value was “blocked uptake”.
